Experimental data as given in patent publication US8853230B2, “Inhibitors of JAK” (Portola Pharmaceuticals, Inc., priority 2009, dated 2014).

Tests used:
TYK2 = target: T1, TYK2 (Homo sapiens, UniProt P29597); assay: Z'-LYTE kinase assay, TYK2 tyrosine phosphorylation activity; format: biochemical
T1 construct: 5 μl of catalytic domain recombinant Kinase enzyme+Tyr peptide substrate (Invitrogen, Calif.); purchased Invitrogen
T1 sequence (P29597 897-1176 limits assumed): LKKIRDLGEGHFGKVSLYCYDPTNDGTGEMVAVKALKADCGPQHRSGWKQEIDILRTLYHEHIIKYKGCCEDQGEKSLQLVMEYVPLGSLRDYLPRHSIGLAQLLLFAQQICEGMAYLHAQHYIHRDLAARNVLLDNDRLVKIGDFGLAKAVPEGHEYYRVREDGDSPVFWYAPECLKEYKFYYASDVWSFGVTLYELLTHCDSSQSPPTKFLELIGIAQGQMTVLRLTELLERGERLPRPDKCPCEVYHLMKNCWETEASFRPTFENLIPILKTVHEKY
In short: (§1)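 Compounds are serially diluted 1:10 in DMSO and tested in duplicate at 1% final DMSO. Each recombinant catalytic domain phosphorylates the Tyr6 FRET peptide with ATP for 1 h at room temperature, then a site-specific protease cleaves unphosphorylated peptide over 1 h before coumarin/fluorescein emission is read.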

JAK1 = target: T2, JAK1 (Homo sapiens, UniProt P23458); assay: Z'-LYTE kinase assay, JAK1 tyrosine phosphorylation activity; format: biochemical; conditions: read-out: JAK 1 IC50
T2 construct: 5 μl of catalytic domain recombinant Kinase enzyme+Tyr peptide substrate (Invitrogen, Calif.); purchased Invitrogen
T2 sequence (P23458 875-1153 limits assumed): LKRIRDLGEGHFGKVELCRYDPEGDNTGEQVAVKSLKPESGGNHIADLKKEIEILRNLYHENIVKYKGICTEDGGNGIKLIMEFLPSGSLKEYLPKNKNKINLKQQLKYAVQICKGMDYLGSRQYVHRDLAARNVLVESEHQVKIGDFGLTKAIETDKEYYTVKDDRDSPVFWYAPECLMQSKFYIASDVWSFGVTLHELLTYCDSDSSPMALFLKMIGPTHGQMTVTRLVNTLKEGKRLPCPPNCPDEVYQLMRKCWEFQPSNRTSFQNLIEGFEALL
In short: as §1

[1] = system: IL4-induced phospho STAT6 formation in Ramos B lymphocytes; assay: Inhibition of IL4-induced phospho STAT6 formation in Ramos B lymphocytes (flow cytometry); format: cell-based, human; conditions: Homo sapiens; for inhibition at 0.2 µM: 200 nM compound, read-out: % Inhibition of IL-4 Induced STAT6 Phosphorylation 200 nM; for inhibition at 1 µM: 1 μM compound, read-out: % Inhibition of IL-4 Induced STAT6 Phosphorylation 1 μM
Excerpt: Similar types of assays can be used to assess JAK inhibitory activity and to determine the degree of selectivity of the particular compound as compared to syk. One means of assaying for such inhibition is detection of the effect of the compounds of the present invention on the upregulation of downstream gene products. In the Ramos/IL4 assay, B-cells are stimulated with the cytokine Interleukin-4 (IL-4) leading to the activation of the JAK/Stat pathway through phosphorylation of the JAK family kinases, JAK1 and JAK3, which in turn phosphorylate and activate the transcription factor Stat-6. […] To study the effect of inhibitors (e.g., the 2,4-substituted pyrimindinediamine compounds described herein) on the JAK1 and JAK3, human Ramos B-cells are stimulated with human IL-4. 10′ post-stimulation, cells are subjected to intracellular flow cytometry to measure the extent of STAT-6 phosphorylation. 20 to 24 hours post-stimulation, cells are stained for upregulation of CD23 and analyzed using flow cytometry.
Inhibition of IL4-induced phospho STAT6 formation was measured by pre-incubating 0.5 million Ramos B lymphocytes (ATCC) with 5 μl compound or DMSO vehicle for 1 hour at 37° C./5% CO2. Cells were activated by addition of 1 ng/ml [f]IL4 (R & D Research Systems) for 10 min at 37° C./5% CO2 and then fixed by addition of 1.6% [f]PFA (Electron Microscopy Services). Following a PBS wash step and permaeabilization with 100% methanol, cells were incubated with ALEXA-conjugated anti-phosphoSTAT6 (Y641) antibody (BD 612600). The extent of cell associated-fluorescence was determined by flow cytomentry and data expressed as mean fluorescent intensity. The extent of inhibition of the IL4-induced signal was then calculated.

JAK2 = target: T3, JAK2 (Homo sapiens, UniProt O60674); assay: Z'-LYTE kinase assay, JAK2 tyrosine phosphorylation activity; format: biochemical
T3 construct: 5 μl of catalytic domain recombinant Kinase enzyme+Tyr peptide substrate (Invitrogen, Calif.); purchased Invitrogen
T3 sequence (O60674 849-1124 limits assumed): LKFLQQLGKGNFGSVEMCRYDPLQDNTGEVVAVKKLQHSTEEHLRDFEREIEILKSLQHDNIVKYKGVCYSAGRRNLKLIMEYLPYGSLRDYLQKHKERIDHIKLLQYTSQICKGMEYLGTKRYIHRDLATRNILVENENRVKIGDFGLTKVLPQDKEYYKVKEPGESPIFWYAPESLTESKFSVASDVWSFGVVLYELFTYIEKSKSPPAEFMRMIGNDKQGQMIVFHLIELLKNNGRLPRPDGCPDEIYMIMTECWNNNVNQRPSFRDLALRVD
In short: as §1

JAK3 = target: T4, JAK3 (Homo sapiens, UniProt P52333); assay: Z'-LYTE kinase assay, JAK3 tyrosine phosphorylation activity; format: biochemical
T4 construct: 5 μl of catalytic domain recombinant Kinase enzyme+Tyr peptide substrate (Invitrogen, Calif.); purchased Invitrogen
T4 sequence (P52333 822-1111 limits assumed): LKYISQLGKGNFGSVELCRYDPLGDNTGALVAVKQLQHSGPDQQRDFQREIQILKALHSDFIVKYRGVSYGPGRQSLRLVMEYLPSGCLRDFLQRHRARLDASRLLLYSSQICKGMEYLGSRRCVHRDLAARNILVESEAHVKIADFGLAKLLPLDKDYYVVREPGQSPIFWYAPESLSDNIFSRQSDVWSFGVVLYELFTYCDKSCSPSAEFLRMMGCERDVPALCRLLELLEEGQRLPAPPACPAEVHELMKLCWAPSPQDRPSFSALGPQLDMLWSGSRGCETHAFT
In short: as §1

| Structure (SMILES) | IC50 (TYK2) [nM] | IC50 (JAK1) [nM] | inhibition at 0.2 µM [1] [%] | inhibition at 1 µM [1] [%] | IC50 (JAK2) [nM] | IC50 (JAK3) [nM] |
| --- | --- | --- | --- | --- | --- | --- |
| NC(=O)c1cnc(Nc2cccc(NC(=O)N3CC=CC3)c2)nc1NCc1ccccc1 [Example 142, 4-(benzylamino)-2-(3-(2,5-dihydro-1H-pyrrole-1-carboxamido)phenylamino)pyrimidine-5-carboxamide] | 1 to 10 | 10 to 100 | 41.3 | 79.3 | 10 to 100 | 1 to 10 |
| NC(=O)c1cnc(Nc2cccc(NC(=O)N3CC[C@H](O)C3)c2)nc1NCc1ccccc1 [Example 143, (S)-4-(benzylamino)-2-(3-(3-hydroxypyrrolidine-1-carboxamido)phenylamino)pyrimidine-5-carboxamide] | 1 to 10 | 10 to 100 | 44.7 | 85.7 | 10 to 100 | 1 to 10 |
| C[C@@H]1CCCN1C(=O)Nc1cccc(Nc2ncc(C(N)=O)c(NCc3ccccc3)n2)c1 [Example 146, (R)-4-(benzylamino)-2-(3-(2-methylpyrrolidine-1-carboxamido)phenylamino)pyrimidine-5-carboxamide] | 1 to 10 | 10 to 100 | 40.7 | 82 | 10 to 100 | 1 to 10 |
| COC[C@H]1CCCN1C(=O)Nc1cccc(Nc2ncc(C(N)=O)c(NCc3ccccc3)n2)c1 [Example 147, (R)-4-(benzylamino)-2-(3-(2-(methoxymethyl)pyrrolidine-1-carboxamido)phenylamino)pyrimidine-5-carboxamide] | 1 to 10 | 10 to 100 | 28.7 | 82 | 10 to 100 | 1 to 10 |
| COC[C@H]1CCCN1C(=O)Nc1cccc(Nc2ncc(C(N)=O)c(N[C@H](C)c3ccccc3)n2)c1 [Example 149, 2-(3-((R)-2-(methoxymethyl)pyrrolidine-1-carboxamido)phenylamino)-4-((R)-1-phenylethylamino)pyrimidine-5-carboxamide] | 10 to 100 | 100 to 1000 | 6.7 | 44 | 10 to 100 | 1 to 10 |
| CCNC(=O)Nc1cc(Nc2ncc(C(N)=O)c(NCc3ccccc3)n2)ccc1Cl [Example 153] | 10 to 100 | 100 to 1000 | 22.3 | 51.7 | 100 to 1000 | 10 to 100 |
| NC(=O)c1cnc(Nc2ccc(Cl)c(NC(=O)NC3CC3)c2)nc1NCc1ccccc1 [Example 154, 4-(benzylamino)-2-(4-chloro-3-(3-cyclopropylureido)phenylamino)pyrimidine-5-carboxamide] | 100 to 1000 | > 1000 | 11.7 | 33.7 | > 1000 | 10 to 100 |
| CC(=O)Nc1cc(Nc2ncc(C(N)=O)c(NCc3ccccc3)n2)ccc1C [Example 155, 2-(3-acetamido-4-methylphenylamino)-4-(benzylamino)pyrimidine-5-carboxamide] | 1 to 10 | 10 to 100 | 71.7 | 88 | 10 to 100 | 1 to 10 |
| CC(=O)Nc1cc(Nc2ncc(C(N)=O)c(NCc3ccccc3)n2)ccc1F [Example 156, 2-(3-acetamido-4-fluorophenylamino)-4-(benzylamino)pyrimidine-5-carboxamide] | 1 to 10 | 10 to 100 | 28 | 71.3 | 10 to 100 | 1 to 10 |
| CNC(=O)Nc1cc(Nc2ncc(C(N)=O)c(NCc3ccccc3)n2)ccc1C [Example 157, 4-(benzylamino)-2-(4-methyl-3-(3-methylureido)phenylamino)pyrimidine-5-carboxamide] | 1 to 10 | 10 to 100 | 23 | 31.7 | 10 to 100 | 1 to 10 |
| COc1ccc(Nc2ncc(C(N)=O)c(NCc3ccccc3)n2)cc1NC(=O)N1CCCC1 [Example 163, 4-(benzylamino)-2-(4-methoxy-3-(pyrrolidine-1-carboxamido)phenylamino)pyrimidine-5-carboxamide] | 1 to 10 | 10 to 100 | 20.7 | 61 | 10 to 100 | 1 to 10 |
| CNC(=O)Nc1cc(Nc2ncc(C(N)=O)c(NCc3ccccc3)n2)ccc1OC [Example 164, 4-(benzylamino)-2-(4-methoxy-3-(3-methylureido)phenylamino)pyrimidine-5-carboxamide] | 1 to 10 | 10 to 100 | 34.7 | 68.7 | 10 to 100 | 1 to 10 |
| CNC(=O)Nc1cc(Nc2ncc(C(N)=O)c(NCc3cccc(Cl)c3)n2)ccc1Cl [Example 165, 2-(4-chloro-3-(3-methylureido)phenylamino)-4-(3-chlorobenzylamino)pyrimidine-5-carboxamide] | > 1000 | > 1000 | 57.3 | 89.7 | 100 to 1000 | 10 to 100 |
| NC(=O)c1cnc(Nc2cccc(NC(=O)N3CCCC3)c2)nc1NCc1ccccc1F [Example 168, 4-(2-fluorobenzylamino)-2-(3-(pyrrolidine-1-carboxamido)phenylamino)pyrimidine-5-carboxamide] | 1 to 10 | 10 to 100 | 54 | 92 | 10 to 100 | 1 to 10 |
| CNC(=O)Nc1cc(Nc2ncc(C(N)=O)c(NCc3ccccc3F)n2)ccc1Cl [Example 169, 2-(4-chloro-3-(3-methylureido)phenylamino)-4-(2-fluorobenzylamino)pyrimidine-5-carboxamide] | 10 to 100 | 100 to 1000 | 3.3 | 16.7 | 100 to 1000 | 1 to 10 |
| NC(=O)c1cnc(Nc2ccc(Cl)c(NC(=O)N3CCCC3)c2)nc1NCc1ccccc1F [Example 170, 2-(4-chloro-3-(pyrrolidine-1-carboxamido)phenylamino)-4-(2-fluorobenzylamino)pyrimidine-5-carboxamide] | 10 to 100 | > 1000 | 5.7 | 53.7 | > 1000 | 1 to 10 |
| CC(=O)Nc1ccc(F)c(Nc2ncc(C(N)=O)c(NCc3ccccc3)n2)c1 [Example 171, 2-(5-acetamido-2-fluorophenylamino)-4-(benzylamino)pyrimidine-5-carboxamide] | 100 to 1000 | 100 to 1000 | 7.3 | 15.3 | 100 to 1000 | 10 to 100 |
| COCC(=O)Nc1ccc(F)c(Nc2ncc(C(N)=O)c(NCc3ccccc3)n2)c1 [Example 172, 4-(benzylamino)-2-(2-fluoro-5-(2-methoxyacetamido)phenylamino)pyrimidine-5-carboxamide] | 100 to 1000 | 100 to 1000 | 11.3 | 33 | 100 to 1000 | 10 to 100 |
| NC(=O)c1cnc(Nc2ccc(Cl)c(NC(=O)N3CCCC3)c2)nc1NCc1cccc(F)c1 [Example 177, 2-(4-chloro-3-(pyrrolidine-1-carboxamido)phenylamino)-4-(3-fluorobenzylamino)pyrimidine-5-carboxamide] | 100 to 1000 | > 1000 | 2.3 | 7.3 | 100 to 1000 | 1 to 10 |
| NC(=O)c1cnc(Nc2cccc(NC(=O)N3CCCC3)c2)nc1NCc1cccc(F)c1 [Example 179, 4-(3-fluorobenzylamino)-2-(3-(pyrrolidine-1-carboxamido)phenylamino)pyrimidine-5-carboxamide] | 10 to 100 | 10 to 100 | 11.3 | 10.7 | 10 to 100 | 1 to 10 |
